Each molecule was assayed against T1, NOX2 in differentiated HL60 cells (Homo sapiens, UniProt P04839) (assay: HL60 cell-based assays: superoxide production by NOX2 (Oxyburst Assay 1 or L012 Assay 2)). Conditions: PMA-stimulated differentiated HL60 cells; in at least one of the HL60 assays (Oxyburst fluorescence or L012 luminescence).
T1 construct: Differentiation of HL-60 cells to granulocytes increases NOX2 expression; endogenous in cells; host or cells: HL60 cells differentiated into neutrophil-like cells with 1.3% DMSO
T1 sequence (P04839 2-570 limits assumed): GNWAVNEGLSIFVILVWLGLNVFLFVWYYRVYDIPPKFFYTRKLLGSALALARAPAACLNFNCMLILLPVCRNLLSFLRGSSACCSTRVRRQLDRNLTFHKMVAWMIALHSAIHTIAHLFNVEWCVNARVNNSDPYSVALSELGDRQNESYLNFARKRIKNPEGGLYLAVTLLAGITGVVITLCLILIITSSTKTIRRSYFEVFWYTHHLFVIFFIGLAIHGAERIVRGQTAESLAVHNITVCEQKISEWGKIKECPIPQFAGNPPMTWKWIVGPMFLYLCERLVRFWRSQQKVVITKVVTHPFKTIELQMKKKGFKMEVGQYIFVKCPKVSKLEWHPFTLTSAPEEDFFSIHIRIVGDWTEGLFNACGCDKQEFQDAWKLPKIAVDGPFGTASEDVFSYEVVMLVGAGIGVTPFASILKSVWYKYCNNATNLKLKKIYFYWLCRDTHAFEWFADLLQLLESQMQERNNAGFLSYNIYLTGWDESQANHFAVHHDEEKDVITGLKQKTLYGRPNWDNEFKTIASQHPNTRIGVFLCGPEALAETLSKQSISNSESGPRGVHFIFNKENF
T1 sequence (P13498 2-195 partner limits assumed): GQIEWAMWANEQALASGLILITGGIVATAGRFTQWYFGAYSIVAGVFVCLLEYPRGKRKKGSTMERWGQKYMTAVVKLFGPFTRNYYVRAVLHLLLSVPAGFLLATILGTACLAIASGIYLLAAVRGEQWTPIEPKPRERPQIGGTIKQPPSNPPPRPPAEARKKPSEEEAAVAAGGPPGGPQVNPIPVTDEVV
Protocol: In the cell-based assay, superoxide production by NOX2 was measured in differentiated HL60 cells, a human myelomonocytic leukemia cell line, using either Oxyburst (Assay1) or L012 (Assay2). Differentiation of HL-60 cells to granulocytes increases NOX2 expression. The phorbol 12-myristate 13-acetate (PMA) was used to stimulate the production of superoxide in HL60 cells by activating protein kinase C, which then activated the NADPH oxidase (NOX) enzymes. Inhibition of NOX2 enzyme was detected by the reversal of fluorescence signal (Assay 1) or luminescence signal (Assay2). The control inhibitor used was diphenyleneiodonium chloride (DPI), a […] inhibitor capable of non-selectively inhibiting superoxide produced by NOX enzymes.
Assay 1: in this high-throughput screening assay, oxyburst green bovine serum albumin (BSA) was used to detect superoxide production in HL60 cells. Oxidation of Oxyburst green BSA by hydrogen peroxide as a result of the activation of NOX2 by PMA. Oxyburst green BSA fluorescence was measured at excitation 485 nm and emission 530 nm.
Assay 2: in this assay, a chemiluminescence probe, L-012 was used to detect superoxide production in HL60 cells. L-012 reacted with various types of reactive oxygen species generated by PMA-activated HL60 cells. Luminescence was measured using Tecan Infinite 500.
The HL60 cells were differentiated into neutrophil-like cells by adding 1.3% DMSO in the media for 3-7 days (Hua, J et al. (2000) Journal of Leukocyte Biology. 68:216-224). Iscove's Modified Dulbecco's Media (IMDM) with L-Glutamine and 25 mM HEPES buffer, Fetal Bovine Serum (FBS), Penicillin/Streptomycin, Oxyburst Green BSA, PBS, and HBSS buffer with Calcium Chloride and Magnesium Chloride were purchased from Invitrogen (Catalog #s: 12440-061, 10500-064, 15140-163, O-13291, 14190-250, and 14025-134 respectively). Phorbol 12-myristate 13-acetate (PMA), glucose, and CHAPS were purchased from Sigma (Catalog #s: 79346, D-9434, and C5070 respectively). Diphenyleneiodonium chloride (DPI) was purchased from Toronto Research Chemicals (Catalog #: D491500). L-012 was purchased from Wako Chemical (Catalog #: 120-04891). Dimethyl sulfoxide (DMSO) was purchased EMD Chemicals (VWR Catalog #: MX1456-1). Multidrop combi was purchased from Thermo Electron Corporation (Waltham, Mass., USA). Hummingbird nanoliter liquid dispenser was purchased from Genomics Solution (Ann Arbor, Mich., USA). 384 well low-volume plates and polypropylene 384 well clear plates were purchased from Greiner (Catalog #: 784076 and 781280 respectively). 96 well plate and 384 well plate black assay plates were purchased from Greiner (Catalog #: 655094 and 781098). 96 well plate for compound serial dilution was purchased from Corning (Catalog #: 9017). Acquest or Analyst fluorescence plate reader was purchased from LJL Biosystems/Molecular Devices (California, USA). Tecan Infinite 500 was purchased from Tecan (Switzerland).
HL60 cells were thawed and resuspended in Cells media. The cells were centrifuged at 1200 rpm for 5 minutes. Media was aspirated and the cells were resuspended in Cells buffer. The cells were counted and resuspended to 0.5×10^6 cells/mL.
Full inhibition controls were dispensed using 100 nL/well of 1 mM DPI in DMSO to column 18 of a 384 well plate. Compounds were dispensed using 100 nL/well. Full activity controls were dispensed using 100 nL/well of 4 uM PMA in DMSO. Oxyburst Green BSA was added to cell solution at 10 ug/mL. Using the Multidrop, 10 uL cell solution was added to the entire assay plate. The assay plate was incubated at room temperature for 100 minutes. Fluorescence reading was taken after 100 minutes at excitation 485 and emission 530 using 505 Dichroic on the Acquest or Analyst.
Serial dilution (1:3.16 fold serial dilution) of the compounds was performed in 100% DMSO in 96 well plate—Row B-H Column 1-10. Row A, Column 1-10 contained DPI serial dilution. Starting concentration was 10^−2 M (10 mM). […]
For `COc1cc(-c2cn(C)c3nccc(NS(=O)(=O)c4ccccc4)c23)cc(N2CCN(C(C)C)CC2)c1` [Example 29, N-(3-(3-(4-isopropylpiperazin-1-yl)-5-methoxyphenyl)-1-methyl-1H-pyrrolo[2,3-b]pyridin-4-yl)benzenesulfonamide], the IC50 was > 100 µM.
With `CC(C)N1CCN(c2cncc(-c3cn(C)c4nccc(NS(=O)(=O)c5cccc(Cl)c5)c34)c2)CC1` [Example 25, 3-chloro-N-(3-(5-(4-isopropylpiperazin-1-yl)pyridin-3-yl)-1-methyl-1H-pyrrolo[2,3-b]pyridin-4-yl)benzenesulfonamide] the IC50 was > 100 µM.
With `CN1Cc2ccc(-c3cn(C)c4nccc(NS(=O)(=O)c5ccccc5)c34)cc2C1` [Example 251, N-[1-methyl-3-(2-methyl-2,3-dihydro-1H-isoindol-5-yl)-1H-pyrrolo[2,3-b]pyridin-4-yl]benzenesulfonamide] the IC50 was > 100 µM.
`Cn1c(-c2cc[nH]n2)c(-c2cccc(N3CCCC3)c2)c2c(NS(=O)(=O)c3ccccc3)ccnc21` [Example 173, N-(1-methyl-2-(1H-pyrazol-3-yl)-3-(3-(pyrrolidin-1-yl)phenyl)-1H-pyrrolo[2,3-b]pyridin-4-yl)benzenesulfonamide] was tested, and the IC50 was > 100 µM.
With `COc1cc(-c2cn(C)c3nccc(NS(=O)(=O)c4ccccc4)c23)cc(N2CCN(C)CC2)c1` [Example 28, N-(3-(3-methoxy-5-(4-methylpiperazin-1-yl)phenyl)-1-methyl-1H-pyrrolo[2,3-b]pyridin-4-yl)benzenesulfonamide] the IC50 was > 100 µM.
In the case of `CN1C(=O)COc2ccc(-c3cn(C)c4nccc(NS(=O)(=O)c5ccccc5)c34)cc21` [Example 39, N-(1-methyl-3-(4-methyl-3-oxo-3,4-dihydro-2H-benzo[b][1,4]oxazin-6-yl)-1H-pyrrolo[2,3-b]pyridin-4-yl)benzenesulfonamide], the IC50 is reported as > 100 µM.
